What was measured:
[1] = molecular target: LIMK2 (Homo sapiens, UniProt P53671); experiment: RapidFire mass spectrometry kinase assay (cofilin phosphorylation); type: biochemical; details: non-phosphorylated LIMK2; mean ± SEM; read-out: Enzymatic (RapidFire) pIC50 LIMK2 (converted)
[2] = molecular target: LIMK1 (Homo sapiens, UniProt P53667); experiment: as above; type: biochemical; details: non-phosphorylated LIMK1; mean ± SEM; read-out: Enzymatic (RapidFire) pIC50 LIMK1 (converted)
[3] = Microsomal stability; details: for Microsomal CLint Rat: rat microsomes, 2 μM compound
[4] = Microsomal stability; details: for microsomal CLint at 2 μM / microsomal CLint at 0.5 h, 2 µM: human, microsomes, pH 7.4

Sequence of LIMK1 (P53667 whole entry): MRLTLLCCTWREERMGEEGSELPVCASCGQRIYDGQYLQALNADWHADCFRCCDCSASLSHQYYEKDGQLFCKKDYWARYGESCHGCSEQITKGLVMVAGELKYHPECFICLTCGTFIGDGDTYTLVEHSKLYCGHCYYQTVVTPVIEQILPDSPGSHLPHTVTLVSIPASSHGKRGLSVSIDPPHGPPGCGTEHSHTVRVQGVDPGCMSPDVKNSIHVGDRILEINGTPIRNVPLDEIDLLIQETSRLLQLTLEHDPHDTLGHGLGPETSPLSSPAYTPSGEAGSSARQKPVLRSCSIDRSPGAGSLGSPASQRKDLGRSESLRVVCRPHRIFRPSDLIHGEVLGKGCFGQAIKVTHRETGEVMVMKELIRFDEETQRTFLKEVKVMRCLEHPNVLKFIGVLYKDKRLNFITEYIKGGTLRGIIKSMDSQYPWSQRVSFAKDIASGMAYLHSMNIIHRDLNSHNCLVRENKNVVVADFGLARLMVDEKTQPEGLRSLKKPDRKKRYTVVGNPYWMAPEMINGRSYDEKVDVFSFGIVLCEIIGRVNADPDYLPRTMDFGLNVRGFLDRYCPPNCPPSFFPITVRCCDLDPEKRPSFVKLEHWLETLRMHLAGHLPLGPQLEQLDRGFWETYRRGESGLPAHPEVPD
Sequence of LIMK2 (P53671 whole entry): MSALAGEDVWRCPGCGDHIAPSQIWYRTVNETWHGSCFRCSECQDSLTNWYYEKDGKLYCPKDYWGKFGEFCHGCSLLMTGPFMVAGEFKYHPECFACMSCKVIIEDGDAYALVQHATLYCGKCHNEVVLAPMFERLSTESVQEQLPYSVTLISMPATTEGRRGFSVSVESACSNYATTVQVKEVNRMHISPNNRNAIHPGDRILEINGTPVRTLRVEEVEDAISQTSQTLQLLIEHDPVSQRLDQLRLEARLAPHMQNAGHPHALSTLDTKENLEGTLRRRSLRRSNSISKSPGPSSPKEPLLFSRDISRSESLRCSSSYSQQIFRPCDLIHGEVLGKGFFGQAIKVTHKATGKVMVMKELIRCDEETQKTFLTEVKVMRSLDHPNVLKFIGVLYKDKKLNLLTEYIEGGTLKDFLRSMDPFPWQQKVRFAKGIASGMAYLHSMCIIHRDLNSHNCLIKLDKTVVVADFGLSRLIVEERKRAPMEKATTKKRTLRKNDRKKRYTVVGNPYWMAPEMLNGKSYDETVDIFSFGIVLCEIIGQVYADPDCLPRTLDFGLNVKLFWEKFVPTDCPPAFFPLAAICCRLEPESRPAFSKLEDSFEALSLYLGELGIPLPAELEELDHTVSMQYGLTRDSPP

Row | SMILES | IC50 [1] [nM] | IC50 [2] [nM] | microsomal CLint at 2 μM [4] [µL/min/mg] | also measured
1 | CCCCN(Cc1ccccc1)C(=O)c1ccc(S(=O)(=O)Nc2ccccc2)cc1F [Compound 21, N-Benzyl-N-butyl-2-fluoro-4-(phenylsulfamoyl)benzamide] | 30.2 | 407 | – | –
2 | CCCCN(Cc1ccccc1)C(=O)c1ccc(S(=O)(=O)Nc2ccccc2)cc1C [Compound 22, N-Benzyl-N-butyl-2-methyl-4-(phenylsulfamoyl)benzamide] | 148 | 2140 | – | –
3 | CCCCN(Cc1ccccc1)C(=O)c1ccc(S(=O)(=O)Nc2ccccc2)cn1 [Compound 23, N-Benzyl-N-butyl-5-(phenylsulfamoyl)pyridine-2-carboxamide] | 166 | 1350 | – | –
4 | CCCCN(Cc1ccccc1)C(=O)c1cnc(S(=O)(=O)Nc2ccccc2)nc1 [Compound 24, N-Benzyl-N-butyl-2-(phenylsulfamoyl)pyrimidine-5-carboxamide] | 1740 | 891 | – | –
5 | CCCCN(Cc1ccccc1)C(=O)c1ccc(S(=O)(=O)Cc2ccccc2)cc1 [Compound 29, N-Benzyl-4-benzylsulfonyl-N-butyl-benzamide] | 468 | > 10000 | – | –
6 | CCCCN(Cc1ccccc1)C(=O)c1coc(S(=O)(=O)Nc2ccccc2)c1 [Compound 30, N-Benzyl-N-butyl-5-(phenylsulfamoyl)furan-3-carboxamide] | 933 | 6920 | – | –
7 | CCCCN(Cc1ccccc1)C(=O)c1ccc(S(=O)(=O)NC)cc1 [Compound 34, N-Benzyl-N-butyl-4-(N-methylsulfamoyl)benzamide] | > 10000 | > 10000 | – | –
8 | CCCCN(Cc1ccccc1)C(=O)c1ccc(S(=O)(=O)Nc2ccncc2)cc1 [Compound 35, N-Benzyl-N-butyl-4-(N-(pyridin-4-yl)sulfamoyl)benzamide] | > 10000 | > 10000 | – | –
9 | CCCCN(Cc1ccccc1)C(=O)c1ccc(S(=O)(=O)Nc2cnoc2)cc1 [Compound 36, N-Benzyl-N-butyl-4-(isoxazol-4-ylsulfamoyl)benzamide] | 6610 | > 10000 | – | –
10 | CCCCN(Cc1ccccc1)C(=O)c1ccc(S(=O)(=O)NC2CCC2)cc1 [Compound 37, N-Benzyl-N-butyl-4-(N-cyclobutylsulfamoyl)benzamide] | 372 | 4470 | – | –
11 | CCCCN(Cc1ccccc1)C(=O)c1ccc(S(=O)(=O)NC2COC2)cc1 [Compound 38, N-Benzyl-N-butyl-4-(N-(oxetan-3-yl)sulfamoyl)benzamide] | > 10000 | > 10000 | – | –
12 | CCCCN(Cc1ccc(F)cc1)C(=O)c1ccc(S(=O)(=O)Nc2ccccc2)cc1 [Compound 39, N-Butyl-N-(4-fluorobenzyl)-4-(N-phenylsulfamoyl)benzamide] | – | 195 | 409 | microsomal CLint at 2 μM ([3]; rat, microsomes, pH 7.4): 942 µL/min/mg
13 | CCCCN(Cc1ccc(OC)cc1)C(=O)c1ccc(S(=O)(=O)Nc2ccccc2)cc1 [Compound 40, N-Butyl-N-(4-methoxybenzyl)-4-(N-phenylsulfamoyl)benzamide] | 39.8 | 447 | 280 | microsomal CLint at 2 μM ([3]; rat, microsomes, pH 7.4): 978 µL/min/mg
14 | CCCCN(Cc1cccc(OC)c1)C(=O)c1ccc(S(=O)(=O)Nc2ccccc2)cc1 [Compound 41, N-Butyl-N-(3-methoxybenzyl)-4-(N-phenylsulfamoyl)benzamide] | 224 | 1620 | 556 | microsomal CLint at 2 μM ([3]; rat, microsomes, pH 7.4): 783 µL/min/mg
15 | CCCCN(Cc1ccccc1OC)C(=O)c1ccc(S(=O)(=O)Nc2ccccc2)cc1 [Compound 42, N-Butyl-N-(2-methoxybenzyl)-4-(N-phenylsulfamoyl)benzamide] | 1170 | 2570 | 812 | microsomal CLint at 2 μM ([3]; rat, microsomes, pH 7.4): 827 µL/min/mg
16 | CCCCN(Cc1ccncc1)C(=O)c1ccc(S(=O)(=O)Nc2ccccc2)cc1 [Compound 43, N-Butyl-4-(N-phenylsulfamoyl)-N-(pyridin-4-ylmethyl)benzamide] | 19.1 | 977 | 144 | microsomal CLint at 2 μM ([3]; rat, microsomes, pH 7.4): 484 µL/min/mg
17 | CCCCN(Cc1cccnc1)C(=O)c1ccc(S(=O)(=O)Nc2ccccc2)cc1 [Compound 44, N-Butyl-4-(N-phenylsulfamoyl)-N-(pyridin-3-ylmethyl)benzamide] | 1510 | 8130 | 234 | Microsomal CLint Rat [3]: Rapid
18 | CCCCN(Cc1ccccn1)C(=O)c1ccc(S(=O)(=O)Nc2ccccc2)cc1 [Compound 45, N-Butyl-4-(N-phenylsulfamoyl)-N-(pyridin-2-ylmethyl)benzamide] | 51.3 | 1290 | 256 | Microsomal CLint Rat [3]: Rapid
19 | CCCCN(Cc1ccco1)C(=O)c1ccc(S(=O)(=O)Nc2ccccc2)cc1 [Compound 46, N-Butyl-N-(furan-2-ylmethyl)-4-(N-phenylsulfamoyl)benzamide] | – | 347 | – | Microsomal CLint Rat [3]: Rapid; Microsomal CLint Human ([4]; human microsomes, 2 μM compound): Rapid
20 | CCCCN(CC1CCCO1)C(=O)c1ccc(S(=O)(=O)Nc2ccccc2)cc1 (stereo not shown) [Compound 47, N-Butyl-4-(N-phenylsulfamoyl)-N-((tetrahydrofuran-2-yl)methyl)benzamide] | > 10000 | > 10000 | 427 | Microsomal CLint Rat [3]: Rapid
21 | CCCCN(Cc1ccc(CCC(=O)O)cc1)C(=O)c1ccc(S(=O)(=O)Nc2ccccc2)cc1 [Compound 48, 3-(4-((N-Butyl-4-(N-phenylsulfamoyl)benzamido)methyl)phenyl)propanoic acid] | 20.9 | 166 | 15 | microsomal CLint at 2 μM ([3]; rat, microsomes, pH 7.4): 18 µL/min/mg
22 | CCN(Cc1ccccc1)C(=O)c1ccc(S(=O)(=O)Nc2ccccc2)cc1 [Compound 52, N-Benzyl-N-ethyl-4-(N-phenylsulfamoyl)benzamide] | – | – | 720 | Microsomal CLint Rat [3]: Rapid
23 | O=C(c1ccc(S(=O)(=O)Nc2ccccc2)cc1)N(CCO)Cc1ccccc1 [Compound 53, N-Benzyl-N-(2-hydroxyethyl)-4-(N-phenylsulfamoyl)benzamide] | – | 209 | 76 | Microsomal CLint Rat [3]: Rapid
24 | O=C(c1ccc(S(=O)(=O)Nc2ccccc2)cc1)N(Cc1ccccc1)CC1CC1 [Compound 57, N-Benzyl-N-(cyclopropylmethyl)-4-(phenylsulfamoyl)benzamide] | – | – | – | Microsomal CLint Rat [3]: Rapid; microsomal CLint at 0.5 h, 2 µM [4]: 495 µL/min/mg
25 | Nc1ccc(CN(CC2CC2)C(=O)c2ccc(S(=O)(=O)Nc3ccccc3)cc2)nc1 [Compound 72, N-[(5-Amino-2-pyridyl)methyl]-N-(cyclopropylmethyl)-4-(phenylsulfamoyl)benzamide] | – | – | – | microsomal CLint at 0.5 h, 2 µM ([3]; rat, microsomes, pH 7.4): 431 µL/min/mg; microsomal CLint at 0.5 h, 2 µM [4]: 36 µL/min/mg
26 | CN(C)CCNc1ccc(CN(CC2CC2)C(=O)c2ccc(S(=O)(=O)Nc3ccccc3)cc2)nc1 [Compound 78, N-(Cyclopropylmethyl)-N-[[5-[2-(dimethylamino)ethylamino]-2-pyridyl]methyl]-4-(phenylsulfamoyl)benzamide] | – | – | 23 | microsomal CLint at 2 μM ([3]; rat, microsomes, pH 7.4): 31 µL/min/mg
27 | CCN(Cc1ccc(NCCO)cn1)C(=O)c1ccc(S(=O)(=O)Nc2ccccc2)cc1 [Compound 80, N-Ethyl-N-[[5-(2-hydroxyethylamino)-2-pyridyl]methyl]-4-(phenylsulfamoyl)benzamide] | – | – | 12 | microsomal CLint at 2 μM ([3]; rat, microsomes, pH 7.4): 51 µL/min/mg

Source: article PMC11726654, “Discovery of MDI-114215: A Potent and Selective LIMK Inhibitor To Treat Fragile X Syndrome” (Journal of Medicinal Chemistry, 2024)
